From PubChem BioAssay AID743394 (Broad Institute, 2014)
Activity calls are given as the source filed them.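 How the source made its calls: active means 40% activation versus positive control reached by fitted dose-response curve at or below highest valid tested dose; inconclusive means poor fit quality, or flat fit with activation between 30% and 70%; inactive means the rest.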

Experiment: inactive X chromosome reactivation in XiGFP fibroblasts, dose response, imaging, 68-5-11 mouse fibroblasts, GFP, cherry-pick (AID 743394);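 further: sensitizer 5-aza-dC present in the wells at 0.5 mM final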
Conditions: 68-5-11 mouse fibroblast XiGFP reporter, % GFP-positive imaging, 3 d
[1] = at 19.5 µM (top of the series), cells co-treated with 5-aza-dC sensitizer, scaled: neutral wells 0, ellipticine wells 100

SMILES: Cn1c(=O)[nH]c(=O)c2c1nc1n2CCCN1Cc1ccccc1
- activation [1]: 0.106% (inactive)

SMILES: O=C1c2ccc3c4c(ccc(c24)C(=O)N1c1cccc(O)c1)C(=O)N(c1cccc(O)c1)C3=O
- activation [1]: -0.037% (inactive)

SMILES: CC(=O)Oc1ccc2c(=O)c(-c3ccccc3)coc2c1
- activation [1]: 0.086% (inactive)

SMILES: C=C(C)c1cccc(C(C)(C)NC(=O)Nc2nnc(C(C)C)s2)c1
- activation [1]: -0.035% (inactive)

SMILES: COc1cc(/C=C/c2ccc3cccc(O)c3n2)ccc1O
- activation [1]: 3.08% (inactive)

SMILES: CCOC(=O)c1sc(Nc2ccc(Br)cc2)nc1C
- activation [1]: 0.082% (inactive)

SMILES: COc1cccc2cc(C(=O)N(Cc3cccs3)CC3CCCO3)c(=O)oc12 (stereo unspecified)
- activation [1]: -0.044% (inactive)

SMILES: O=C1CSC(c2cccnc2)N1Cc1ccc(Cl)cc1Cl (stereo unspecified)
- activation [1]: -0.022% (inactive)

SMILES: CN(C)CCCNC(=O)/C(=C\c1ccc(-c2ccc(Br)cc2)o1)NC(=O)c1ccccc1
- activation [1]: -0.053% (inactive)

SMILES: O=C(O)c1cccnc1C(=O)N1CCc2c([nH]c3ccccc23)C1C(F)(F)F (stereo unspecified)
- activation [1]: 0.006% (inactive)

SMILES: COc1ccc(CNC(=O)c2ccc(-c3cnn(C)c3)c3ccoc23)cc1OC
- activation [1]: -0.037% (inactive)

SMILES: O=C(c1nc(SCc2ccc([N+](=O)[O-])cc2)n2ccccc12)C(F)(F)F
- activation [1]: 0.007% (inactive)

SMILES: O=c1c2ccccc2nnn1Cc1ccc2ccccc2c1
- activation [1]: -0.047% (inactive)

SMILES: COCCNC(=O)CSc1nc2scc(-c3ccccc3)c2c(=O)[nH]1
- activation [1]: -0.001% (inactive)

SMILES: CCN1CCN(c2cc3nc(C)n(Cc4ccccc4)c(=O)c3cc2NC(=O)c2ccccc2F)CC1
- activation [1]: -0.127% (inactive)

SMILES: Cn1c(=N)n(CC(=O)c2ccccc2)c2ccccc21
- activation [1]: 0.105% (inactive)

SMILES: Cc1ccc(NC(=O)COc2ccc(-c3nnco3)cc2)cc1S(=O)(=O)N1CCOCC1
- activation [1]: -0.044% (inactive)

SMILES: COc1ccc(C(=O)Nc2c(F)c(F)c(F)c(F)c2F)cc1OC
- activation [1]: -0.047% (inactive)

SMILES: O=c1[nH]cnc2c1ncn2[C@H]1CC[C@@H](CO)O1
- activation [1]: -0.002% (inactive)

SMILES: COc1ccc(NC(=O)N(C)[C@H]2C[C@H]3c4[nH]c5ccc(-c6ccc(OC)cc6)cc5c4CCN3C(=O)[C@H]2[C@H](C)O)cc1
- activation [1]: 0.523% (inactive)

SMILES: CCOCCCn1c(=NC(C)=O)c(C#N)cc2c(=O)n3cccc(C)c3nc21
- activation [1]: 0.035% (inactive)

SMILES: C[C@@H]1CN([C@H](C)CO)C(=O)c2cc(NC(=O)Nc3ccc4c(c3)OCO4)ccc2O[C@@H](C)CCCCO[C@@H]1CN(C)C(=O)Cc1ccccc1
- activation [1]: 0.577% (inactive)

SMILES: O=C1C2C3C=CC(CNS(=O)(=O)c4ccccc4[N+](=O)[O-])(O3)C2C(=O)N1c1ccccc1 (stereo unspecified)
- activation [1]: 0.059% (inactive)

SMILES: O=C(Nc1cccc(S(=O)(=O)NC2=NCCC2)c1)C1CC(=O)N(c2ccc3c(c2)OCCO3)C1 (stereo unspecified)
- activation [1]: 0.339% (inactive)

SMILES: COC(=O)c1ccc(-n2c(C)cc(C(=O)COC(=O)C3=COCCO3)c2C)cc1
- activation [1]: -0.033% (inactive)

SMILES: O=C(NC1=NN(c2ccccc2)CC1)Nc1ccccc1F
- activation [1]: -0.003% (inactive)

SMILES: CCCN(C(=O)c1ccc(-n2cncn2)c([N+](=O)[O-])c1)C1CCS(=O)(=O)C1 (stereo unspecified)
- activation [1]: -0.007% (inactive)

SMILES: C[C@@H]1CN([C@H](C)CO)C(=O)c2cc(NS(=O)(=O)c3ccc(F)cc3)ccc2O[C@@H](C)CCCCO[C@@H]1CN(C)Cc1ccc2c(c1)OCO2
- activation [1]: 9.16% (inactive)

SMILES: O=C(N/N=C/c1ccc2cccnc2c1)c1nc2ccccc2c(=O)[nH]1
- activation [1]: 0.014% (inactive)

SMILES: Cc1ncsc1C(=O)Nc1cccc(C(F)(F)F)c1
- activation [1]: -0.075% (inactive)

SMILES: CC(C)C(NC(=O)c1ccc(F)cc1)C(=O)NCC1CCCO1 (stereo unspecified)
- activation [1]: 0.21% (inactive)

SMILES: CC(=O)c1ccc(NS(=O)(=O)c2ccc(N/C=C/C(=O)c3ccc(F)cc3)cc2)cc1
- activation [1]: 0.351% (inactive)

SMILES: Cc1ccc(-c2[nH]c(=S)[nH]c(=O)c2C#N)cc1
- activation [1]: -0.003% (inactive)

SMILES: COc1ccc(S(=O)(=O)N(C)C[C@H]2Oc3ccc(NS(=O)(=O)c4ccc(F)cc4)cc3CC(=O)N([C@@H](C)CO)C[C@@H]2C)cc1
- activation [1]: 0.034% (inactive)

SMILES: C[n+]1c(-c2ccccc2)c2cc(N)ccc2c2ccc(N)cc21
- activation (at 19.5 µM (top of the series)): 1.19% (inactive)

SMILES: NNC(=O)c1sc(-c2ccc(Cl)cc2)cc1N
- activation [1]: 2.31% (inactive)

SMILES: CC1Oc2ccccc2C=C1/C=N\NC(=O)c1cccnc1 (stereo unspecified)
- activation [1]: 0.047% (inactive)

SMILES: COc1ccc(NC(=O)Nc2ccc3c(c2)C(=O)N([C@H](C)CO)C[C@H](C)[C@H](CN(C)Cc2ccc4c(c2)OCO4)O3)cc1
- activation [1]: -0.031% (inactive)

SMILES: C[C@H]1CN([C@@H](C)CO)C(=O)c2ccccc2-c2ccccc2CO[C@H]1CN(C)C(=O)[C@@H](Cc1ccccc1)N(C)C
- activation [1]: 0% (inactive)

SMILES: COc1ccc2c3c([nH]c2c1)[C@H](CO)N(C(=O)c1cccnc1)CC31CCN(Cc2ccccc2)CC1
- activation [1]: 0.094% (inactive)

SMILES: COc1cc(CNc2nc3ccccc3n2C)cc(OC)c1OC
- activation [1]: 0.013% (inactive)

SMILES: O=C(NC1=C(NC2CCS(=O)(=O)C2)C(=O)c2ccccc2C1=O)c1ccccc1 (stereo unspecified)
- activation [1]: -0.047% (inactive)

SMILES: Cc1ccc(C(=O)Cn2cncn2)cc1
- activation [1]: -0.053% (inactive)

SMILES: O=C(CCn1nc(-c2ccc(Cl)cc2)c2ccccc2c1=O)NN1CCOCC1
- activation [1]: -0.017% (inactive)

SMILES: C=CCN(CC(O)c1cccc([N+](=O)[O-])c1)C(C)CCc1ccccc1 (stereo unspecified)
- activation [1]: -0.039% (inactive)

SMILES: Cc1ccc(C)c(CSC2=NN3CCCC(=O)N=C3S2)c1
- activation [1]: -0.017% (inactive)

SMILES: O=C(Nc1c(F)cccc1F)C(c1ccccc1)c1ccccc1
- activation [1]: 0.013% (inactive)

SMILES: Cc1ccc(-c2ccccc2[C@@H]2[C@H](C#N)N(S(C)(=O)=O)[C@H]2CO)cc1
- activation (at 21 µM (top of the series), cells co-treated with 5-aza-dC sensitizer, scaled: neutral wells 0, ellipticine wells 100): 0.241% (inactive)

SMILES: Cc1cc(=O)[nH]c(N/N=C/c2cc(C)n(CC(F)(F)F)c2C)n1
- activation [1]: 0.184% (inactive)

SMILES: CCOc1ccc(CCN2C(=S)N([C@@H](Cc3ccccc3)CN3CCC[C@@H]3CN3C(=S)NC[C@@H]3CC(C)C)C[C@@H]2Cc2ccccc2)cc1
- activation [1]: 0.011% (inactive)

SMILES: CN(C)S(=O)(=O)c1cccc(C(=O)NCC2(N3CCOCC3)CCCCC2)c1
- activation [1]: -0.002% (inactive)

SMILES: Cc1cc(=O)[nH]c(N/N=C/c2cc(C)n(-c3ccccc3)c2C)n1
- activation [1]: -0.016% (inactive)

SMILES: N#Cc1ccccc1Cn1cc(/C=N/Nc2ccc([N+](=O)[O-])cn2)c2ccccc21
- activation [1]: 10.9% (inactive)

SMILES: CCN(CC)c1ccc(/C=C(/C#N)C(=O)NCc2ccccc2)o1
- activation [1]: 12.4% (inactive)

SMILES: CN(Cc1nccn1C)C(=O)CC1C(=O)NCCN1CC(c1ccccc1)c1ccccc1 (stereo unspecified)
- activation [1]: 0.001% (inactive)

SMILES: CC[N+]1=C(C)C(C)(C)c2cc(C)ccc21
- activation [1]: -0.032% (inactive)

SMILES: CC(C)NC(=O)N(C)C[C@@H]1OCCCC[C@H](C)Oc2ccc(NC(=O)Nc3ccc(C(F)(F)F)cc3)cc2C(=O)N([C@H](C)CO)C[C@@H]1C
- activation [1]: 0.005% (inactive)

SMILES: C=Cc1cnc([N+](=O)[O-])n1C
- activation [1]: -0.018% (inactive)

SMILES: COc1ccc(NS(=O)(=O)c2ccc(NC(C)=O)cc2)nn1
- activation [1]: 0.042% (inactive)

SMILES: Cc1ccc2[nH]c(C(=O)O)c(NC(=O)[C@@H]3C[C@@H]3c3ccccc3)c2c1
- activation [1]: -0.035% (inactive)

SMILES: NS(=O)(=O)c1cccc(NC(=O)COC(=O)Cc2ccc(S(=O)(=O)N3CCOCC3)s2)c1
- activation [1]: 0.056% (inactive)

SMILES: CCC(=O)OCCNc1cc(Sc2nc3ccccc3[nH]2)c2nonc2c1[N+](=O)[O-]
- activation [1]: -0.037% (inactive)

SMILES: CCOC(=O)C1=c2/c(=C/c3ccncc3)c(N)c(C(=O)OC)n2C(=O)C(c2ccncc2)S1 (stereo unspecified)
- activation [1]: 0.188% (inactive)

SMILES: CC1=C(Cl)C2=NS(=O)(=O)CCN2C=C1Cl
- activation [1]: 0.137% (inactive)

SMILES: CCc1ccc(NS(=O)(=O)c2cccc3nonc23)cc1
- activation [1]: -0.121% (inactive)

SMILES: Cc1ccc(NC(=O)c2ccc(=O)[nH]c2)cc1S(=O)(=O)N1CCCCCC1
- activation [1]: 0.105% (inactive)

SMILES: COc1ccc2c3c([nH]c2c1)[C@H](CO)N(C(=O)C1CCCC1)CC31CN(Cc2nccs2)C1
- activation [1]: -0.007% (inactive)

SMILES: S=C(SSC(=S)N1CCOCC1)N1CCOCC1
- activation [1]: -0.127% (inactive)

SMILES: Cc1ccc(S(=O)(=O)N2CCOCC2)cc1C(=O)OCC(=O)NC1CCS(=O)(=O)C1 (stereo unspecified)
- activation [1]: -0.034% (inactive)

SMILES: COC(=O)c1cc(C(=O)N2CCN(c3ccccc3OC)CC2)cc([N+](=O)[O-])c1
- activation [1]: 0.681% (inactive)

SMILES: C(CCCN1CCCCC1)CCN1CCCCC1
- activation [1]: 0.047% (inactive)

SMILES: Cc1nn(-c2ccccc2)c(C)c1N
- activation [1]: 0.313% (inactive)

SMILES: CC(C)OC(=O)CC(=O)CSc1nc(-c2ccc(F)cc2)cc(-c2ccccc2)c1C#N
- activation [1]: 0.769% (inactive)

SMILES: O=C(O)c1ccccc1CSc1nc2ccccc2n1Cc1ccccc1C(=O)O
- activation [1]: 0.715% (inactive)

SMILES: Cc1cc(=O)oc2cc3c(cc12)CCCN3
- activation (at 19.5 µM (top of the series)): 0.76% (inactive)

SMILES: Cc1cccc(-c2ccc([C@H]3[C@H](CO)N4CCCCN(C(=O)NC(C)C)C[C@@H]34)cc2)c1
- activation [1]: 0.105% (inactive)

SMILES: COc1cccc(CNC(=O)C(Cc2ccccc2)n2cccc2)c1 (stereo unspecified)
- activation [1]: 0.002% (inactive)

SMILES: Cn1c(=O)[nH]c(=O)c2c1nc(SCCN1CCOCC1)n2CCCc1ccccc1
- activation [1]: -0.047% (inactive)

SMILES: Cc1cc(C(=O)NCc2cc(F)cc3c2OCOC3)nn1C
- activation [1]: -0.037% (inactive)

SMILES: CC(Sc1nnc(-c2ccncc2)n1C)C(=O)Nc1ccc(N2CCOCC2)cc1 (stereo unspecified)
- activation [1]: -0.047% (inactive)

SMILES: COc1cc(/C=N/Nc2nc(N3CCCC3)nc(N3CCCC3)n2)ccc1OCc1ccccc1F
- activation [1]: 0.149% (inactive)

SMILES: CCc1ccc(CCC(=O)Nc2ncc(Cc3ccccc3Cl)s2)o1
- activation [1]: 0.223% (inactive)

SMILES: Cc1ccc(-c2csc(NC(=O)c3cccc([N+](=O)[O-])c3C(=O)O)n2)cc1
- activation [1]: -0.047% (inactive)

SMILES: CCc1ccc(N2CC(C(=O)Nc3cc(C)on3)CC2=O)cc1 (stereo unspecified)
- activation [1]: -0.034% (inactive)

SMILES: O=C(c1cnccn1)N1CC(=O)N2[C@H](CO)[C@@H](c3ccc(-c4cccc(F)c4)cc3)[C@@H]2C1
- activation [1]: -0.014% (inactive)

SMILES: CSc1ccc(CNCC2CCCO2)cc1 (stereo unspecified)
- activation [1]: 0.842% (inactive)
